Assay results reported in patent publication US20190060249A1 (priority 2017, published 2019).

Tests used:
[1] = system: mouse primary salivary sphere lysate; test: ALDH fluorescence-coupled enzymatic assay in salivary sphere lysate; type: biochemical; conditions: 10 mM acetaldehyde, 100 μM Alda-341
Experimental: Assay conditions were modified from the original enzyme assay protocol above using 50 mM NaPPi buffer (pH 7.4), 2.5 mM NAD^+, 10 mM acetaldehyde or all-trans-retinal substrate with the addition of 1 U/mL diaphorase and 0.1 mM resazurin for the secondary reaction. Measurements were collected in triplicate at 25° C.
All measurements were collected in triplicate, and error bars represent SEM. *=p<0.05; ***=p<0.001 (Student's t-test).

[2] = system: mouse WT EpCAM+/CD24+-sorted cells; test: Salisphere formation assay, mouse; type: cell-based; conditions: 25 μM Alda-341 over 7 days
Experimental: Salisphere formation assay: Cells isolated from mouse submandibular glands (SMG) were FACS sorted using cell surface markers EpCAM and CD24 as previously described and seeded on matrigel (BD Biosciences, BD356235). Cells were grown in DMEM/F12+GlutaMax (Gibco, 10565-018) media containing 10% FBS, 1× anti-anti, 1% N2 supplement (Gibco), 20 ng/mL […] (Sigma-Aldrich), 20 ng/mL fibroblast growth factor-2 (Sigma-Aldrich), 10 μg/mL insulin (Sigma-Aldrich), 1 μM dexamethasone (Sigma-Aldrich), 10 μM […] (Stem Cell Technologies). Spheres were passaged every 7 days by dissociating into single cells by incubating in 1 mg/mL dispase (BD Biosciences) for 20 minutes and 0.25% trypsin-EDTA for 20 minutes. Spheres were grown for 7 days and imaged with a BZ-X710 Keyence microscope using the z-stack function. Images were stitched together into a single image and analyzed using ImageJ (NIH) to quantify sphere number and area. Experiments were repeated at least 3 independent times.
Sphere number per well quantified by Image J (NIH). 6 replicates per group.

[3] = biological target: T1, ALDH5A1 (Homo sapiens, UniProt P51649); test: ALDH enzymatic assay, recombinant ALDH5A1; type: biochemical; conditions: 5 μg/ml recombinant enzyme, 10 mM acetaldehyde, 20 μM Alda-341
T1 sequence (P51649 48-535): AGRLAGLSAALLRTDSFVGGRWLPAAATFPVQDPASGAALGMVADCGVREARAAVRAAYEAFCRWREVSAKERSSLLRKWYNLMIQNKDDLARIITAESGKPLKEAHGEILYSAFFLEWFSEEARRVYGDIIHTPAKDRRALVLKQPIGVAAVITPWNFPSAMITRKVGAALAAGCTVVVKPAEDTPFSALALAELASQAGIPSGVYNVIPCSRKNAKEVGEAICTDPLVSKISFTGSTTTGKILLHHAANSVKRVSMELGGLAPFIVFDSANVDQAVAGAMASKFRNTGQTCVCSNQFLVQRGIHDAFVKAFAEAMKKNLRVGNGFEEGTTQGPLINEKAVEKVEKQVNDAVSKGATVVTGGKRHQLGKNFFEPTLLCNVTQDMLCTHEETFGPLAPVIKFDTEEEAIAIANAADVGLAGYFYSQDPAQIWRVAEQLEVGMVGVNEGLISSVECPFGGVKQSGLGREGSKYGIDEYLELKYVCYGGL
Experimental: (§1) ALDH enzymatic assay: ALDH1A1, ALDH1A2, 2, 3A1, 3A2, 4A1, 5A1, 7A1 were measured as previously described using 5 μg/ml of recombinant protein (Chen, C. H., Cruz, L. A., and Mochly-Rosen, D. (2015) Pharmacological recruitment of aldehyde dehydrogenase 3A1 (ALDH3A1) to assist ALDH2 in acetaldehyde and ethanol metabolism in vivo. Proceedings of the National Academy of Sciences of the United States of America 112, 3074-3079). […] Assays were conducted in 50 mM NaPPi buffer (pH 7.4) in the presence of 2.5 mM NAD^+ and 10 mM substrate and measured in triplicate at 25° C. Dose response curve fits and EC50's were calculated using GraphPad Prism 7 software.

[4] = C57BL/6 female mice irradiated with 30 Gy, treated 8 weeks with Alda-341
Experimental: Pathology: A complete necropsy was performed by a certified veterinarian. Tissues from brain, heart, kidney, liver, esophagus, thymus, trachea, thyroid, lung, spleen, pancreas, trachea, stomach, pancreas, intestines, bladder, uterus and ovary were fixed on slides and scored for inflammation, necrosis, and apoptosis from a scale of 0 to 5. A complete blood count and blood chemistry panel was assessed by Stanford's Veterinary Services Center.

[5] = system: SAS (human papillomavirus [HPV]-negative) head and neck squamous cell carcinoma cell line; test: Xenograft study, SAS; type: in vivo, SCID mice; conditions: Alda-341 from one week ahead of irradiation, during and post; 30 Gy over 5 fractions
Experimental: (§2) Xenograft study: Six-week old SCID mice were purchased from the Jackson laboratory and five mice per group were used. SCC90 and SAS cells (2×10^6 cells/injection) were implanted into both flanks of each mouse. Alda-341 treated one week ahead of irradiation and continued during and post radiation. Total 30 Gy over 5 fractions in a week was delivered to the tumor with the rest of the body shielded. Tumor size was measured every 1-2 days. Tumor volume was calculated by the formula (π×length×width×height)/6.

[6] = system: SSC90 (HPV-positive) head and neck squamous cell carcinoma cell line; test: Xenograft study, SSC90; type: in vivo, SCID mice; conditions: Alda-341 from one week ahead of irradiation, during and post; 30 Gy over 5 fractions
Experimental: as §2

[7] = biological target: T2, ALDH7A1 (Homo sapiens, UniProt P49419); test: ALDH enzymatic assay, recombinant ALDH7A1; type: biochemical; conditions: 5 μg/ml recombinant enzyme, 10 mM acetaldehyde, 20 μM Alda-341
T2 sequence (P49419 27-539): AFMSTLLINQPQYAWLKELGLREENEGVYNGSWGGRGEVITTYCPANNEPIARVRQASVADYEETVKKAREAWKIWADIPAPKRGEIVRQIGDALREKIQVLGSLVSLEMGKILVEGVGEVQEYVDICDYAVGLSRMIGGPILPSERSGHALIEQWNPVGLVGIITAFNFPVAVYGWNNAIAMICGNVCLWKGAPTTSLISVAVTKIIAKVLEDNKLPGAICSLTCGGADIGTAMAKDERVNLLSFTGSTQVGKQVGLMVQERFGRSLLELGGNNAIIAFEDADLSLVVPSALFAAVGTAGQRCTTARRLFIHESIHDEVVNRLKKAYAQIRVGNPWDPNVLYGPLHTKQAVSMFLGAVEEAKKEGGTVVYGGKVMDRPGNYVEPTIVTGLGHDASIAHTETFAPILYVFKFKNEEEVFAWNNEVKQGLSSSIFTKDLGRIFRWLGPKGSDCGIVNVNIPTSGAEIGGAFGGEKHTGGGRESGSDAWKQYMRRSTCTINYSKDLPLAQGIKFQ
Experimental: as §1

## C=C(C)[C@H]1CC=C(C)CC1 [Alda-341, D-limonene]
[1]; 400 μg/mL Aldh3a1(−/−) salivary sphere lysate
  enzymatic activity of the lysate from Aldh3a1(−/−) mice: did not increase
[1]; 400 μg/mL C57BL/6 WT salivary sphere lysate
  increase of enzymatic activity of WT lysate: approximately 30%
[2]
  increase in total salisphere number compared to vehicle control: ~15%
[3]
  catalytic activity of ALDH5A1: did not increase
[4]
  complete blood count and blood chemistry panel: normal complete blood count and blood chemistry panel
[5]
  tumor growth and protection of tumors from radiation, SAS xenograft: did not increase tumor growth or protect tumors from radiation
[6]
  tumor growth and protection of tumors from radiation, SSC90 xenograft: did not increase tumor growth or protect tumors from radiation
[7]
  catalytic activity of ALDH7A1: did not increase
